According to ChEMBL document CHEMBL1137961, “Benzimidazolone p38 inhibitors” (Bioorg Med Chem Lett, 2004):

These molecules were tested against Mitogen-activated protein kinase 14 (Homo sapiens, UniProt Q16539) (assay: Inhibitory activity against mitogen activated protein (MAP) kinase p38 alpha.).
Chain of Mitogen-activated protein kinase 14 (Q16539 whole entry): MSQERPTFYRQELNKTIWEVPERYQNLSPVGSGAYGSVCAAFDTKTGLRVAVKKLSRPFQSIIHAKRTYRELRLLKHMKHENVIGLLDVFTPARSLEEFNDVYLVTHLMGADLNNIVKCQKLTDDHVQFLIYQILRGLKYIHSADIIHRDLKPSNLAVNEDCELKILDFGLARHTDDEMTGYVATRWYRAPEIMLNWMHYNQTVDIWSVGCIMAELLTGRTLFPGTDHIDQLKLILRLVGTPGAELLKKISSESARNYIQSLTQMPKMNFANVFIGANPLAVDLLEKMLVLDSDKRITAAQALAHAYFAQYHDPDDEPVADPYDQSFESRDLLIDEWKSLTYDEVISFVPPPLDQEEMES

Row | Structure (SMILES) | IC50 [nM]
1 | CCn1c(=O)n(CC)c2cc(-c3[nH]cnc3-c3cccc(C)c3)ccc21 | 50
2 | Cn1c(=O)n(C)c2cc(-c3c[nH]nc3-c3ccccc3)ccc21 | 200
3 | CCn1c(=O)n(CC)c2cc(-c3cccnc3-c3cccc(C)c3)ccc21 | > 1000
4 | Cc1ccccc1-c1nc(-c2cccs2)[nH]c1-c1ccc2c(c1)n(C)c(=O)n2C | 6200
5 | CCn1c(=O)n(CC)c2cc(-c3ccnn3-c3cccc(C)c3)ccc21 | 690
6 | CCn1c(=O)n(CC)c2cc(-c3cc(-c4cccnc4)[nH]c3-c3cccc(C)c3)ccc21 | > 1000
7 | CCc1cccc(-c2[nH]c(-c3cccs3)nc2-c2ccc3c(c2)n(C)c(=O)n3C)c1 | 500
8 | Cn1c(=O)n(C)c2cc(-c3[nH]c(-c4cccs4)nc3-c3ccc(F)cc3)ccc21 | 270
9 | Cc1ccc(-c2nc(-c3cccs3)[nH]c2-c2ccc3c(c2)n(C)c(=O)n3C)cc1 | 1800
10 | CC(C)c1cccc(-c2[nH]c(-c3cccs3)nc2-c2ccc3c(c2)n(C)c(=O)n3C)c1 | > 32000
11 | CCn1c(=O)n(CC)c2cc(-c3c[nH]nc3-c3ccc(F)c(C)c3)ccc21 | 30
12 | CCn1c(=O)n(CC)c2cc(-c3c[nH]nc3-c3cccc(C)c3)ccc21 | 9
13 | CCn1c(=O)n(CC)c2cc(-c3c(-c4ccc(F)cc4)ncn3C3CCNCC3)ccc21 | 90
14 | CCc1ccc(-c2[nH]c(-c3cccs3)nc2-c2ccc3c(c2)n(C)c(=O)n3C)cc1 | 8000
15 | Cn1c(=O)n(C)c2cc(-c3n[nH]cc3-c3ccccc3)ccc21 | 2500
16 | CCn1c(=O)n(CC)c2cc(-c3[nH]cnc3-c3ccc(F)cc3)ccc21 | 100
17 | CCn1c(=O)n(CC)c2cc(-n3nnnc3-c3ccc(F)c(C)c3)ccc21 | > 1000
18 | Cn1c(=O)n(C)c2cc(-c3[nH]c(-c4cccs4)nc3-c3ccc(Cl)cc3)ccc21 | 680
19 | Cn1c(=O)n(C)c2cc(-c3[nH]c(-c4cccs4)nc3-c3cccc(OC(F)(F)F)c3)ccc21 | 15800
20 | Cn1c(=O)n(C)c2cc(-c3[nH]c(-c4cccs4)nc3-c3cccc(Cl)c3)ccc21 | 380

Other lines, results leading:

Row | IC50 [nM] | Structure (SMILES)
21 | 390 | Cn1c(=O)n(C)c2cc(-c3[nH]c(-c4cccs4)nc3-c3cccc(F)c3)ccc21
22 | 70 | Cc1cccc(-c2nc(C3CCNCC3)[nH]c2-c2ccc3c(c2)n(C)c(=O)n3C)c1
23 | 70 | CCn1c(=O)n(CC)c2cc(-c3[nH]c(-c4cccnc4)nc3-c3cccc(C)c3)ccc21
24 | 60 | CCn1c(=O)n(CC)c2cc(-c3c[nH]nc3-c3cccc(C(F)(F)F)c3)ccc21
25 | 260 | Cn1c(=O)n(C)c2cc(-c3[nH]c(-c4cccs4)nc3-c3ccccc3)ccc21
26 | > 1000 | CCn1c(=O)n(CC)c2cc(-c3nnnn3-c3ccc(F)c(C)c3)ccc21
27 | 140 | Cc1cccc(-c2nc(-c3cccs3)[nH]c2-c2ccc3c(c2)n(C)c(=O)n3C)c1
28 | > 1000 | CCn1c(=O)n(CC)c2cc(-c3c[nH]cn3)ccc21
29 | 200 | Cc1cccc(-c2nc(-c3cccnc3)[nH]c2-c2ccc3c(c2)n(C)c(=O)n3C)c1
30 | 14400 | Cc1cccc(-n2cncc2-c2ccc3c(c2)n(C)c(=O)n3C)c1
31 | 730 | CCn1c(=O)n(CC)c2cc(-c3n[nH]cc3-c3cccc(C)c3)ccc21
32 | 140 | Cn1c(=O)n(C)c2cc(-c3[nH]cnc3-c3ccc(F)cc3)ccc21
33 | 100 | Cc1cccc(-c2nc[nH]c2-c2ccc3c(c2)n(C)c(=O)n3C)c1
34 | 290 | Cn1c(=O)n(C)c2cc(-c3[nH]cnc3-c3ccccc3)ccc21
35 | 540 | Cn1c(=O)n(C)c2cc(-c3[nH]c(-c4cccs4)nc3-c3ccccc3Cl)ccc21
36 | 1500 | Cn1c(=O)n(C)c2cc(-c3[nH]c(-c4cccs4)nc3-c3cccc(C(F)(F)F)c3)ccc21
37 | 680 | CCn1c(=O)n(CC)c2cc(-c3n[nH]cc3-c3ccccc3)ccc21
38 | 12500 | Cc1cccc(-c2nncn2-c2ccc3c(c2)n(C)c(=O)n3C)c1
39 | 4000 | Cn1c(=O)n(C)c2cc(-c3[nH]c(-c4ccc([S+](C)[O-])cc4)nc3-c3ccc(F)cc3)ccc21 (stereo not given)
40 | 140 | CCn1c(=O)n(CC)c2cc(-c3[nH]cnc3-c3ccccc3)ccc21
41 | 370 | Cn1c(=O)n(C)c2cc(-c3[nH]c(-c4cccs4)nc3-c3ccccc3F)ccc21
42 | 260 | Cc1cccc(-c2[nH]c3nc(N)ccc3c2-c2ccc3c(c2)n(C)c(=O)n3C)c1
43 | 1250 | CCn1c(=O)n(CC)c2cc(-c3c(-c4cccc(C)c4)nc(C4CCNCC4)n3C)ccc21
44 | 800 | CCn1c(=O)n(CC)c2cc(-c3ocnc3-c3cccc(C)c3)ccc21
45 | 200 | CCn1c(=O)n(CC)c2cc(-c3c[nH]nc3-c3ccccc3)ccc21
